Experiments:
Test in all cases: Test B pre-/postemergence plant response
Format in all cases: in vivo
[1] = test system: kochia (Kochia scoparia)
Method in brief: (§1)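 Greenhouse herbicide screen. Pre- and postemergence (1- to 4-leaf) spray of compound in solvent/surfactant mixture; loam–sand soil for pre, peat/vermiculite medium for post. Visual control rating 0–100 at 13 to 15 days after treatment.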

[2] = test system: soybean (Glycine max)
Method in brief: as §1

[3] = test system: yellow nutsedge (Cyperus esculentus)
Method in brief: as §1

[4] = test system: green foxtail (Setaria viridis)
Method in brief: as §1

[5] = test system: cocklebur (Xanthium strumarium)
Method in brief: as §1

[6] = test system: ragweed (common ragweed, Ambrosia elatior)
Method in brief: as §1

[7] = test system: velvetleaf (Abutilon theophrasti)
Method in brief: as §1

[8] = test system: wild oat (Avena fatua)
Method in brief: as §1

[9] = test system: blackgrass (Alopecurus myosuroides)
Method in brief: as §1

[10] = 62 g ai/ha, postemergence, 0 is no effect, 100 is complete control, 13 to 15 days

## O=C1CCCC(O)=C1C(=O)c1cnc(-c2ccccc2)n(C2CCCCC2)c1=O [Compound 128, 3-cyclohexyl-5-[(2-hydroxy-6-oxo-1-cyclohexen-1-yl)carbonyl]-2-phenyl-4(3H)-pyrimidinone]
[1]; [10]
  Kochia plant response rating (0 to 100 scale): 85
[1]; Bassia scoparia, post-emergence, Postemergence, 31 g ai/ha, 0 to 100 scale (0 no effect, 100 complete control), read-out: Plant response rating, Kochia
  pest or weed control at 31 g/ha: 60%
[1]; Bassia scoparia, post-emergence, Postemergence, 125 g ai/ha, scale 0 to 100 (0 no effect, 100 complete control), read-out: Plant response rating, Kochia
  pest or weed control at 125 g/ha: 95%
[1]; Bassia scoparia, post-emergence, Postemergence, 250 g ai/ha, scale 0 to 100 (0 no effect, 100 complete control), 13 to 15 days, read-out: Plant response rating, Kochia
  pest or weed control at 250 g/ha: 98%
[2]; [10]
  Soybean plant response rating (0 to 100 scale): 98
[2]; Glycine max, post-emergence, Postemergence, 31 g ai/ha, 0 to 100 scale (0 no effect, 100 complete control), read-out: Plant response rating, Soybean
  plant injury at 31 g/ha: 98%
[2]; Glycine max, post-emergence, Postemergence, 125 g ai/ha, scale 0 to 100 (0 no effect, 100 complete control), read-out: Plant response rating, Soybean
  plant injury at 125 g/ha: 98%
[2]; Glycine max, post-emergence, Postemergence, 250 g ai/ha, scale 0 to 100 (0 no effect, 100 complete control), 13 to 15 days, read-out: Plant response rating, Soybean
  plant injury at 250 g/ha: 98%
[3]; [10]
  Nutsedge, Yellow plant response rating (0 to 100 scale): 35
[3]; Cyperus, post-emergence, Postemergence, 31 g ai/ha, 0 to 100 scale (0 no effect, 100 complete control), read-out: Plant response rating, Nutsedge, Yellow
  pest or weed control at 31 g/ha: 20%
[3]; Cyperus, post-emergence, Postemergence, 125 g ai/ha, scale 0 to 100 (0 no effect, 100 complete control), read-out: Plant response rating, Nutsedge, Yellow
  pest or weed control at 125 g/ha: 60%
[3]; Cyperus, post-emergence, Postemergence, 250 g ai/ha, scale 0 to 100 (0 no effect, 100 complete control), 13 to 15 days, read-out: Plant response rating, Nutsedge, Yellow
  pest or weed control at 250 g/ha: 60%
[4]; [10]
  Foxtail, Green plant response rating (0 to 100 scale): 95
[4]; Setaria viridis, post-emergence, Postemergence, 31 g ai/ha, 0 to 100 scale (0 no effect, 100 complete control), read-out: Plant response rating, Foxtail, Green
  pest or weed control at 31 g/ha: 85%
[4]; Setaria viridis, post-emergence, Postemergence, 125 g ai/ha, scale 0 to 100 (0 no effect, 100 complete control), read-out: Plant response rating, Foxtail, Green
  pest or weed control at 125 g/ha: 95%
[4]; Setaria viridis, post-emergence, Postemergence, 250 g ai/ha, scale 0 to 100 (0 no effect, 100 complete control), 13 to 15 days, read-out: Plant response rating, Foxtail, Green
  pest or weed control at 250 g/ha: 98%
[5]; [10]
  Cocklebur plant response rating (0 to 100 scale): 98
[5]; Xanthium strumarium, post-emergence, Postemergence, 31 g ai/ha, 0 to 100 scale (0 no effect, 100 complete control), read-out: Plant response rating, Cocklebur
  pest or weed control at 31 g/ha: 98%
[5]; Xanthium strumarium, post-emergence, Postemergence, 125 g ai/ha, scale 0 to 100 (0 no effect, 100 complete control), read-out: Plant response rating, Cocklebur
  pest or weed control at 125 g/ha: 100%
[5]; Xanthium strumarium, post-emergence, Postemergence, 250 g ai/ha, scale 0 to 100 (0 no effect, 100 complete control), 13 to 15 days, read-out: Plant response rating, Cocklebur
  pest or weed control at 250 g/ha: 100%
[6]; [10]
  Ragweed plant response rating (0 to 100 scale): 85
[6]; Ambrosia artemisiifolia, post-emergence, 360 h, Postemergence, 31 g ai/ha, 0 to 100 scale (0 no effect, 100 complete control), read-out: Plant response rating, Ragweed
  pest or weed control at 31 g/ha: 85%
[6]; Ambrosia artemisiifolia, post-emergence, 360 h, Postemergence, 125 g ai/ha, scale 0 to 100 (0 no effect, 100 complete control), read-out: Plant response rating, Ragweed
  pest or weed control at 125 g/ha: 95%
[6]; Ambrosia artemisiifolia, post-emergence, 360 h, Postemergence, 250 g ai/ha, scale 0 to 100 (0 no effect, 100 complete control), 13 to 15 days, read-out: Plant response rating, Ragweed
  pest or weed control at 250 g/ha: 98%
[7]; [10]
  Velvetleaf plant response rating (0 to 100 scale): 95
[7]; Abutilon theophrasti, post-emergence, 360 h, Postemergence, 31 g ai/ha, 0 to 100 scale (0 no effect, 100 complete control), read-out: Plant response rating, Velvetleaf
  pest or weed control at 31 g/ha: 90%
[7]; Abutilon theophrasti, post-emergence, 360 h, Postemergence, 125 g ai/ha, scale 0 to 100 (0 no effect, 100 complete control), read-out: Plant response rating, Velvetleaf
  pest or weed control at 125 g/ha: 95%
[7]; Abutilon theophrasti, post-emergence, 360 h, Postemergence, 250 g ai/ha, scale 0 to 100 (0 no effect, 100 complete control), 13 to 15 days, read-out: Plant response rating, Velvetleaf
  pest or weed control at 250 g/ha: 100%
[8]; [10]
  Oat, Wild plant response rating (0 to 100 scale): 50
[8]; Avena fatua, post-emergence, Postemergence, 31 g ai/ha, 0 to 100 scale (0 no effect, 100 complete control), read-out: Plant response rating, Oat, Wild
  pest or weed control at 31 g/ha: 40%
[8]; Avena fatua, post-emergence, Postemergence, 125 g ai/ha, scale 0 to 100 (0 no effect, 100 complete control), read-out: Plant response rating, Oat, Wild
  pest or weed control at 125 g/ha: 60%
[8]; Avena fatua, post-emergence, Postemergence, 250 g ai/ha, scale 0 to 100 (0 no effect, 100 complete control), 13 to 15 days, read-out: Plant response rating, Oat, Wild
  pest or weed control at 250 g/ha: 80%
[9]; [10]
  Blackgrass plant response rating (0 to 100 scale): 5
[9]; Alopecurus myosuroides, post-emergence, 360 h, Postemergence, 31 g ai/ha, 0 to 100 scale (0 no effect, 100 complete control), read-out: Plant response rating, Blackgrass
  pest or weed control at 31 g/ha: 5%
[9]; Alopecurus myosuroides, post-emergence, 360 h, Postemergence, 125 g ai/ha, scale 0 to 100 (0 no effect, 100 complete control), read-out: Plant response rating, Blackgrass
  pest or weed control at 125 g/ha: 10%
[9]; Alopecurus myosuroides, post-emergence, 360 h, Postemergence, 250 g ai/ha, scale 0 to 100 (0 no effect, 100 complete control), 13 to 15 days, read-out: Plant response rating, Blackgrass
  pest or weed control at 250 g/ha: 15%

From patent US8952024B2, “Herbicidal pyrimidone derivatives” (E I du Pont de Nemours and Company, priority 2009, dated 2015)
